Biological target: T1, ERα (Homo sapiens, UniProt P03372)
T1 construct: host or cells: MCF-7
T1 sequence (P03372 1-595): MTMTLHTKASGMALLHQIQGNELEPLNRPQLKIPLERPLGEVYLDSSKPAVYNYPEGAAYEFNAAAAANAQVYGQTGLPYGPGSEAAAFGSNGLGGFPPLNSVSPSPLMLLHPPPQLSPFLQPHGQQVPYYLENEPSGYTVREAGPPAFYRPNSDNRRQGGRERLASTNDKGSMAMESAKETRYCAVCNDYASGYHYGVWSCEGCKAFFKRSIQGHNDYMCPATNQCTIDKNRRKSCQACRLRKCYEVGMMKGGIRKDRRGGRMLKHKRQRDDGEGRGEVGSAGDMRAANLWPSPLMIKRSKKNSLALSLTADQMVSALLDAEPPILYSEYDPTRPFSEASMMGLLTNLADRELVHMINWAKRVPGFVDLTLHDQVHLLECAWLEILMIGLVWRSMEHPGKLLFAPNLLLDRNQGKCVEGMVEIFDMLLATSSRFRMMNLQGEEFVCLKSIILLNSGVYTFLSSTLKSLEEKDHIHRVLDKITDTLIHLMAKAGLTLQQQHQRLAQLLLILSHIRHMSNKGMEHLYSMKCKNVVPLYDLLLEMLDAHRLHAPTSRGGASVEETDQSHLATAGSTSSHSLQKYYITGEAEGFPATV
Experiment: ER degradation activity in MCF-7 cells (Western blot, grayscale intensity)
Format: cell-based
Conditions: 6 hours treatment, 1 nM to 100 nM, concentration required to degrade 50% of the target protein
Protocol: ERα-positive human breast cancer cells MCF-7 (ATCC, HTB-22) were cultured with EMEM medium (ATCC, catalog number 30-2003) containing 10% fetal bovine serum (Thermo Fisher, catalog number 10099141) and 10 µg/mL bovine insulin in 25 cm^2 or 75 cm^2 plastic tissue culture flasks in a 37 °C incubator with 5% CO2. The cells were passaged 2 to 3 times per week. MCF-7 cells were seeded in 6-well plate at 1×10^6 cells/well with 1.8 mL culture medium per well, and cultured in a 37 °C incubator with 95% air and 5% CO2. After 24 hours, the test compounds were added: the compounds were serially diluted 10-fold in DMSO starting from 10 mM (dissolved in DMSO) to prepare gradient stock solutions. A complete culture medium containing 1% DMSO was prepared for further dilution, temporarily named as the "dilution buffer." Working solutions were prepared by diluting each stock solution with 99 times the volume of dilution buffer, that is, by adding 1 µL of the 10 mM stock solution to 99 µL of the dilution buffer and mixing thoroughly.
Finally, […] of the working solution was added to the cell-seeded culture plate. The final concentration of DMSO in the cell culture medium was 0.2%, and the final concentration of the test compounds ranged from 1 nM to 100 nM. The cells were then incubated at 37 °C for 6 hours.
The culture medium was removed, and the cells were washed twice with ice cold PBS. 1 mL of PBS was added to each well, and the cells were collected into EP tubes using a cell scraper, and centrifuged at 4 °C, 4000 rpm for 5 minutes. PBS was aspirated. Total protein was extracted using the Minute™ Mammalian Tissue/Cell Total Protein Extraction Reagent. The protein concentration was measured using the BCA protein assay kit. 30 µg of protein was taken and mixed with 5× SDS-PAGE loading buffer, boiled for 10 minutes, and cooled. The samples were loaded into wells of a precast gel, with constant voltage at 80 V for 30 minutes, and then the voltage was changed to 120 V after the samples entered the resolving gel. The "sandwich" (sponge - filter paper - gel - membrane - filter paper - sponge) was assembled for Bio-Rad's Transblot. Transfer was performed for 1 hour at 0.3 amp at 4 °C. The sample was blocked with 5% fat-free milk for 1 hour, and incubated with Estrogen Receptor alpha Antibody (Thermo Fisher, catalog number MA5-14104) overnight at 4 °C. The membrane was washed with TBST to remove non-specifically bound antibodies, and then incubated with goat anti-mouse IgG-HRP secondary antibody for 1 hour at room temperature, and was visualized using ECL. The protein degradation level was calculated by measuring the grayscale intensity.
The DC50 values (i.e., the concentration of the test compounds required to degrade 50% of the target protein) were calculated and shown in Table 1. A corresponds to a DC50 value below 10 nM, B corresponds to a DC50 value greater than 10 nM and less than 100 nM, and C corresponds to DC50 values greater than 100 nM. Table 1. The DC50 values of exemplary compounds in MCF-7 cells

Compound	DC50 [nM]
CC1(C)CC(=C(c2ccc(N3CCN(CC4CN(c5ccc6c(c5)C(=O)N(C5CCC(=O)NC5=O)C6=O)C4)CC3)cc2)c2ccc3[nH]nc(F)c3c2)CC(C)(C)O1 (centres unmarked) [Compound 1]	> 100
CC1(C)CC(=C(c2ccc3[nH]nc(F)c3c2)c2c(F)cc(N3CCN(C4CN(c5ccc6c(c5)C(=O)N(C5CCC(=O)NC5=O)C6=O)C4)CC3)cc2F)CC(C)(C)O1 (centres unmarked) [Compound 3]	> 100
CC1(C)CC(=C(c2ccc(N3CCN(CC4CCN(c5ccc6c(c5)C(=O)N(C5CCC(=O)NC5=O)C6=O)CC4)CC3)nc2)c2ccc3[nH]nc(F)c3c2)CC(C)(C)O1 (centres unmarked) [Compound 4]	> 100
CC1(C)CC(=C(c2ccc(OC3CN(CC4CCN(c5ccc6c(c5)C(=O)N(C5CCC(=O)NC5=O)C6=O)CC4)C3)nc2)c2ccc3[nH]nc(F)c3c2)CC(C)(C)O1 (centres unmarked) [Compound 7]	10 to 100
CC1(C)CC(=C(c2ccc(OC3CN(CC4CCN(c5ccc6c(c5)C(=O)N(C5CCC(=O)NC5=O)C6=O)CC4)C3)cc2)c2ccc3[nH]nc(F)c3c2)CC(C)(C)O1 (centres unmarked) [Compound 8]	> 100
CC1(C)CC(=C(c2ccc3[nH]nc(F)c3c2)c2c(F)cc(N3CCN(CC4CN(c5ccc6c(c5)C(=O)N(C5CCC(=O)NC5=O)C6=O)C4)CC3)cc2F)CC(C)(C)O1 (centres unmarked) [Compound 9]	> 100
CC1(C)CC(=C(c2ccc3[nH]nc(F)c3c2)c2c(F)cc(N3CCN(C4CCN(c5ccc6c(c5)C(=O)N(C5CCC(=O)NC5=O)C6=O)CC4)CC3)cc2F)CC(C)(C)O1 (centres unmarked) [Compound 10]	> 100
CC1(C)CC(=C(c2ccc3[nH]nc(F)c3c2)c2c(F)cc(N3CCC(N4CCN(c5ccc6c(c5)C(=O)N(C5CCC(=O)NC5=O)C6=O)CC4)CC3)cc2F)CC(C)(C)O1 (centres unmarked) [Compound 11]	< 10
CC1(C)CC(=C(c2ccc3[nH]nc(F)c3c2)c2c(F)cc(N3CCC(CN4CCN(c5ccc6c(c5)C(=O)N(C5CCC(=O)NC5=O)C6=O)CC4)CC3)cc2F)CC(C)(C)O1 (centres unmarked) [Compound 12]	10 to 100
CC1(C)CC(=C(c2ccc(N3CC(N4CCN(c5ccc6c(c5)C(=O)N(C5CCC(=O)NC5=O)C6=O)CC4)C3)cc2)c2ccc3[nH]nc(F)c3c2)CC(C)(C)O1 (centres unmarked) [Compound 13]	> 100
CC1(C)CC(=C(c2ccc3[nH]nc(F)c3c2)c2c(F)cc(OC3CN(C4CN(c5ccc6c(c5)C(=O)N(C5CCC(=O)NC5=O)C6=O)C4)C3)cc2F)CC(C)(C)O1 (centres unmarked) [Compound 14]	> 100
CC1(C)CC(=C(c2ccc3[nH]nc(F)c3c2)c2c(F)cc(N3CC(CN4CCN(c5ccc6c(c5)C(=O)N(C5CCC(=O)NC5=O)C6=O)CC4)C3)cc2F)CC(C)(C)O1 (centres unmarked) [Compound 15]	10 to 100
CC1(C)CC(=C(c2ccc(OCCN3CCN(c4ccc5c(c4)C(=O)N(C4CCC(=O)NC4=O)C5=O)CC3)cc2)c2ccc3[nH]nc(F)c3c2)CC(C)(C)O1 (centres unmarked) [Compound 16]	> 100
CC1(C)CC(=C(c2ccc(N3CC(CN4CCN(c5ccc6c(c5)C(=O)N(C5CCC(=O)NC5=O)C6=O)CC4)C3)cc2)c2ccc3[nH]nc(F)c3c2)CC(C)(C)O1 (centres unmarked) [Compound 17]	> 100
CC1(C)CC(=C(c2ccc(OC3CN(C4CCN(c5ccc6c(c5)C(=O)N(C5CCC(=O)NC5=O)C6=O)CC4)C3)nc2)c2ccc3[nH]nc(F)c3c2)CC(C)(C)O1 (centres unmarked) [Compound 18]	> 100
CC1(C)CC(=C(c2ccc(OC3CN(C4CN(c5ccc6c(c5)C(=O)N(C5CCC(=O)NC5=O)C6=O)C4)C3)nc2)c2ccc3[nH]nc(F)c3c2)CC(C)(C)O1 (centres unmarked) [Compound 19]	> 100
CC1(C)CC(=C(c2ccc(OC3CN(C4CCN(c5ccc6c(c5)C(=O)N(C5CCC(=O)NC5=O)C6=O)CC4)C3)cc2)c2ccc3[nH]nc(F)c3c2)CC(C)(C)O1 (centres unmarked) [Compound 20]	> 100
CC1(C)CC(=C(c2ccc(OC3CN(C4CN(c5ccc6c(c5)C(=O)N(C5CCC(=O)NC5=O)C6=O)C4)C3)cc2)c2ccc3[nH]nc(F)c3c2)CC(C)(C)O1 (centres unmarked) [Compound 21]	> 100

Compound	DC50 [nM]
CC1(C)CC(=C(c2ccc3[nH]nc(F)c3c2)c2c(F)cc(OCCN3CCN(c4ccc5c(c4)C(=O)N(C4CCC(=O)NC4=O)C5=O)CC3)cc2F)CC(C)(C)O1 (centres unmarked) [Compound 23]	> 100
CC1(C)CC(=C(c2ccc3[nH]nc(F)c3c2)c2c(F)cc(OC3CN(CC4CCN(c5ccc6c(c5)C(=O)N(C5CCC(=O)NC5=O)C6=O)CC4)C3)cc2F)CC(C)(C)O1 (centres unmarked) [Compound 24]	10 to 100
CC1(C)CC(=C(c2ccc3[nH]nc(F)c3c2)c2c(F)cc(OC3CN(C4CCN(c5ccc6c(c5)C(=O)N(C5CCC(=O)NC5=O)C6=O)CC4)C3)cc2F)CC(C)(C)O1 (centres unmarked) [Compound 25]	> 100
CC1(C)CC(=C(c2ccc3[nH]nc(F)c3c2)c2c(F)cc(OC3CN(CC4CN(c5ccc6c(c5)C(=O)N(C5CCC(=O)NC5=O)C6=O)C4)C3)cc2F)CC(C)(C)O1 (centres unmarked) [Compound 26]	< 10
CC1(C)CC(=C(c2ccc(N3CC(CN4CCN(c5ccc6c(c5)C(=O)N(C5CCC(=O)NC5=O)C6=O)CC4)C3)nc2)c2ccc3[nH]nc(F)c3c2)CC(C)(C)O1 (centres unmarked) [Compound 27]	10 to 100
CC1(C)CC(=C(c2ccc(OCCN3CCN(c4ccc5c(c4)C(=O)N(C4CCC(=O)NC4=O)C5=O)CC3)nc2)c2ccc3[nH]nc(F)c3c2)CC(C)(C)O1 (centres unmarked) [Compound 28]	> 100
CC1(C)CC(=C(c2ccc3[nH]nc(F)c3c2)c2c(F)cc(N3CC(N4CCN(c5ccc6c(c5)C(=O)N(C5CCC(=O)NC5=O)C6=O)CC4)C3)cc2F)CC(C)(C)O1 (centres unmarked) [Compound 29]	> 100
CC1(C)CC(=C(c2ccc(OC3CN(CC4CN(c5ccc6c(c5)C(=O)N(C5CCC(=O)NC5=O)C6=O)C4)C3)nc2)c2ccc3[nH]nc(F)c3c2)CC(C)(C)O1 (centres unmarked) [Compound 30]	> 100
CC1(C)CC(=C(c2ccc(OC3CN(CC4CN(c5ccc6c(c5)C(=O)N(C5CCC(=O)NC5=O)C6=O)C4)C3)cc2)c2ccc3[nH]nc(F)c3c2)CC(C)(C)O1 (centres unmarked) [Compound 32]	> 100
CC1(C)CC(=C(c2ccc(N3CCC(CN4CCN(c5ccc6c(c5)CN(C5CCC(=O)NC5=O)C6=O)CC4)CC3)nc2)c2ccc3[nH]ncc3c2)CC(C)(C)O1 (centres unmarked) [Compound 39]	< 10
CC1(C)CC(=C(c2ccc(N3CC(CN4CCN(c5ccc6c(c5)CN(C5CCC(=O)NC5=O)C6=O)CC4)C3)nc2)c2ccc3[nH]nc(F)c3c2)CC(C)(C)O1 (centres unmarked) [Compound 40]	> 100
CC1(C)CC(=C(c2ccc(N3CCC(CN4CCN(c5ccc6c(c5)CN(C5CCC(=O)NC5=O)C6=O)CC4)CC3)cc2)c2ccc3[nH]nc(F)c3c2)CC(C)(C)O1 (centres unmarked) [Compound 41]	10 to 100
CC1(C)CC(=C(c2ccc(N3CCC4(CC3)CC(N3CC5(CN(c6ccc7c(c6)CN(C6CCC(=O)NC6=O)C7=O)C5)C3)C4)nc2)c2ccc3[nH]nc(F)c3c2)CC(C)(C)O1 (centres unmarked) [Compound 43]	> 100
CN(CC1CCN(c2ccc(C(=C3CC(C)(C)OC(C)(C)C3)c3ccc4[nH]nc(F)c4c3)cn2)CC1)C1CCN(c2ccc3c(c2)CN(C2CCC(=O)NC2=O)C3=O)CC1 (centres unmarked) [Compound 45]	10 to 100
CC1(C)CC(=C(c2ccc(N3CCC4(CC(N5CCN(c6ccc7c(c6)CN(C6CCC(=O)NC6=O)C7=O)CC5)C4)C3)nc2)c2ccc3[nH]nc(F)c3c2)CC(C)(C)O1 (centres unmarked) [Compound 49]	> 100
CC1(C)CC(=C(c2ccc(N3CC4(CC(N5CCN(c6ccc7c(c6)CN(C6CCC(=O)NC6=O)C7=O)CC5)C4)C3)nc2)c2ccc3[nH]nc(F)c3c2)CC(C)(C)O1 (centres unmarked) [Compound 50]	> 100
CC1(C)CC(=C(c2ccc(N3CC4C(CN5CCN(c6ccc7c(c6)CN(C6CCC(=O)NC6=O)C7=O)CC5)C4C3)nc2)c2ccc3[nH]nc(F)c3c2)CC(C)(C)O1 (centres unmarked) [Compound 51]	> 100
